For 15 compounds, Activity results are on record in ChEMBL document CHEMBL4152255, “Functionalized spirooxindole-indolizine hybrids: Stereoselective green synthesis and evaluation of anti-inflammatory effect involving TNF-α and nitrite inhibition” (2018).

Holding throughout (format): functional
Assay [1] concerns Rattus norvegicus. Briefly: Anti-inflammatory activity against carrageenan-induced paw oedema in Wistar albino rat assessed as hind paw thickness at 50 mg/kg, po pretreated for 1 hr followed by carrageenan challenge measured after 3 hrs by caliper method (reference value: 8.45 +/- 0.64 millimeter). For orientation: In the carrageenan paw model, swelling and tenderness develop within hours.

Assay [2] has as its system Rattus norvegicus. Briefly: Anti-inflammatory activity against carrageenan-induced paw oedema in Wistar albino rat assessed as hind paw thickness at 50 mg/kg, po pretreated for 1 hr followed by carrageenan challenge measured immediately by caliper method (reference value: 3.58 +/- 0.34 millimeter).
Assay [3] relates to Rattus norvegicus. Kind of assay: Anti-inflammatory activity against carrageenan-induced paw oedema in Wistar albino rat assessed as hind paw thickness at 50 mg/kg, po pretreated for 1 hr followed by carrageenan challenge measured after 5 hrs by caliper method (reference value: 8.37 +/- 0.64 millimeter).
Assay [4] has as its system Rattus norvegicus. Kind of assay: Anti-inflammatory activity against carrageenan-induced paw oedema in Wistar albino rat assessed as hind paw thickness at 10 mg/kg, po pretreated for 1 hr followed by carrageenan challenge measured immediately by caliper method (reference value: 3.58 +/- 0.34 millimeter).
For assay [5], the system named is Mus musculus. Briefly: Antiinflammatory activity in mouse assessed as inhibition of croton oil-induced ear edema at 0.5 mg/ear administered topically pretreated for 1 hr followed by croton oil addition and measured after 4 hrs relative to control. Also on record: scale not given: the % may be the effect or the level left.
The test system of assay [6] is Rattus norvegicus. Kind of assay: Anti-inflammatory activity against carrageenan-induced paw oedema in Wistar albino rat assessed as reduction in PGE2 level at 10 mg/kg, po pretreated for 1 hr followed by carrageenan challenge by ELISA relative to control. Also on record: scale not given: the % may be the effect or the level left.
Assay [7] deals with Rattus norvegicus. Kind of assay: Anti-inflammatory activity against carrageenan-induced paw oedema in Wistar albino rat assessed as reduction in nitrite level at 10 mg/kg, po pretreated for 1 hr followed by carrageenan challenge by Griess assay relative to control. Details: scale not given: the % may be the effect or the level left.
Assay [8] deals with Rattus norvegicus. Briefly: Anti-inflammatory activity against carrageenan-induced paw oedema in Wistar albino rat assessed as reduction in TNFalpha level at 10 mg/kg, po pretreated for 1 hr followed by carrageenan challenge by ELISA relative to control. Details: scale not given: the % may be the effect or the level left.
Assay [9] deals with Rattus norvegicus. Kind of assay: Anti-inflammatory activity against carrageenan-induced paw oedema in Wistar albino rat assessed as hind paw thickness at 10 mg/kg, po pretreated for 1 hr followed by carrageenan challenge measured after 5 hrs by caliper method (reference value: 8.37 +/- 0.64 millimeter).
For assay [10], the system named is Rattus norvegicus. Kind of assay: Anti-inflammatory activity in Wistar albino rat assessed as inhibition of cotton pellet-induced granuloma at 10 mg/kg administered once daily for 7 days measured on day 8 relative to control. Also on record: scale not given: the % may be the effect or the level left.
In assay [11] the test system is Rattus norvegicus. Kind of assay: Anti-inflammatory activity against carrageenan-induced paw oedema in Wistar albino rat assessed as hind paw thickness at 10 mg/kg, po pretreated for 1 hr followed by carrageenan challenge measured after 3 hrs by caliper method (reference value: 8.45 +/- 0.64 millimeter).
The subject of assay [12] is Rattus norvegicus. Briefly: Anti-inflammatory activity against carrageenan-induced paw oedema in Wistar albino rat assessed as reduction in hind paw thickness at 50 mg/kg, po pretreated for 1 hr followed by carrageenan challenge measured after 5 hrs by caliper method relative to control. Also on record: scale not given: the % may be the effect or the level left.
For assay [13], the system named is Rattus norvegicus. Briefly: Anti-inflammatory activity against carrageenan-induced paw oedema in Wistar albino rat assessed as reduction in hind paw thickness at 50 mg/kg, po pretreated for 1 hr followed by carrageenan challenge measured after 3 hrs by caliper method relative to control. Also on record: scale not given: the % may be the effect or the level left.

In assay [14] the test system is Rattus norvegicus. Briefly: Anti-inflammatory activity against carrageenan-induced paw oedema in Wistar albino rat assessed as reduction in nitrite level at 50 mg/kg, po pretreated for 1 hr followed by carrageenan challenge by Griess assay relative to control. Details: scale not given: the % may be the effect or the level left.
For assay [15], the system named is Rattus norvegicus. Briefly: Anti-inflammatory activity against carrageenan-induced paw oedema in Wistar albino rat assessed as reduction in PGE2 level at 50 mg/kg, po pretreated for 1 hr followed by carrageenan challenge by ELISA relative to control. Details: scale not given: the % may be the effect or the level left.
Assay [16] relates to Rattus norvegicus. Briefly: Anti-inflammatory activity against carrageenan-induced paw oedema in Wistar albino rat assessed as reduction in TNFalpha level at 50 mg/kg, po pretreated for 1 hr followed by carrageenan challenge by ELISA relative to control. Details: scale not given: the % may be the effect or the level left.
Assay [17] relates to Rattus norvegicus. Briefly: Anti-inflammatory activity in Wistar albino rat assessed as inhibition of cotton pellet-induced granuloma at 50 mg/kg administered once daily for 7 days measured on day 8 relative to control. Also on record: scale not given: the % may be the effect or the level left.
Assay [18] deals with Mus musculus. Kind of assay: Antiinflammatory activity in mouse assessed as inhibition of croton oil-induced ear edema at 1 mg/ear administered topically pretreated for 1 hr followed by croton oil addition and measured after 4 hrs relative to control. Details: scale not given: the % may be the effect or the level left.

For `O=C1/C(=C/c2ccccc2F)CNCC12[C@@H](c1ccccc1F)[C@@H]1CCCCN1[C@@]21C(=O)Nc2ccccc21` (some centres undefined), the Activity in assay [1] is 6.53 mm; in [2], 3.61 mm; in assay [3] it was 6.13 mm.
Take `O=C1/C(=C/c2ccccc2)CNCC12[C@@H](c1ccccc1)[C@@H]1CCCCN1[C@@]21C(=O)Nc2ccccc21` (some centres undefined): the Activity in assay [1] came out at 7.21 mm; in assay [2], 3.61 mm; in assay [3], 6.98 mm.
The like results for `Cc1ccccc1/C=C1\CNCC2(C1=O)[C@@H](c1ccccc1C)[C@@H]1CCCCN1[C@@]21C(=O)Nc2ccccc21` (some centres undefined) were, in that order, 7.5 mm, 3.63 mm and 7.41 mm.
The matching figures for `O=C1/C(=C/c2ccc(F)cc2)CNCC12[C@@H](c1ccc(F)cc1)[C@@H]1CCCCN1[C@@]21C(=O)Nc2ccccc21` (some centres undefined): 7.18 mm, 3.62 mm and 6.9 mm.
For `O=C1/C(=C/c2ccc(Cl)cc2)CNCC12[C@@H](c1ccc(Cl)cc1)[C@@H]1CCCCN1[C@@]21C(=O)Nc2ccccc21` (some centres undefined), the Activity is listed as 8.16 mm in assay [1], 3.62 mm in [2] and 8 mm in [3].
With `COc1ccc2c(c1)c(CC(=O)O)c(C)n2C(=O)c1ccc(Cl)cc1` [INDOMETHACIN], the Activity in assay [4] turned out to be 3.61 mm; in assay [5], 53.56%; in assay [6] it was 33.88%; in assay [7] it was 41.64%; in [8], 37.13%; in assay [9] it was 3.83 mm. For the same compound, the Activity in [10] is reported as 39.7%; in assay [11], 3.86 mm.
`O=C1/C(=C/c2ccccc2Br)CNCC12[C@@H](c1ccccc1Br)[C@@H]1CCCCN1[C@@]21C(=O)Nc2ccccc21` (some centres undefined): the Activity in assay [1] is 7 mm; in assay [2], 3.54 mm; in [3], 6.2 mm.
The like results for `O=C1/C(=C/c2ccccc2Cl)CNCC12[C@@H](c1ccccc1Cl)[C@@H]1CCCCN1[C@@]21C(=O)Nc2ccccc21` (some centres undefined) were, in that order, 6.54 mm, 3.59 mm and 7.18 mm.
`O=C1/C(=C/c2ccc(Cl)cc2Cl)CNCC12[C@@H](c1ccc(Cl)cc1Cl)[C@@H]1CCCCN1[C@@]21C(=O)Nc2ccccc21` (some centres undefined): the values for the Activity in assay [1], in assay [2] and in [3] were 7.12 mm, 3.59 mm and 6.5 mm, respectively.
`COc1cccc(/C=C2\CNCC3(C2=O)[C@@H](c2cccc(OC)c2)[C@@H]2CCCCN2[C@@]32C(=O)Nc3ccccc32)c1` (some centres undefined): the Activity in assay [1] stood at 8.1 mm; in assay [2], 3.61 mm; in assay [3], 7.62 mm.
As for `COc1ccc(/C=C2\CNCC3(C2=O)[C@@H](c2ccc(OC)cc2)[C@@H]2CCCCN2[C@@]32C(=O)Nc3ccccc32)cc1` (some centres undefined), the Activity in assay [1] was 3.75 mm; in assay [2] it was 3.58 mm; in assay [3], 3.72 mm; in assay [12], 55.54%; in assay [13] it was 55.61%; in assay [14], 41.22%. Moreover, the Activity in assay [15] is on record as 34.1%; in [16], 38.52%; in [17] it was 32.48 - 37.21%; in assay [18], 48.32 - 49.02%.
For `COc1ccccc1/C=C1\CNCC2(C1=O)[C@@H](c1ccccc1OC)[C@@H]1CCCCN1[C@@]21C(=O)Nc2ccccc21` (some centres undefined), the Activity in assay [1] is listed as 6.31 mm; in assay [2], 3.67 mm; in assay [3], 7 mm.
As to `Cc1ccc(/C=C2\CNCC3(C2=O)[C@@H](c2ccc(C)cc2)[C@@H]2CCCCN2[C@@]32C(=O)Nc3ccccc32)cc1` (some centres undefined), the Activity in assay [1] is 3.87 mm; in assay [2], 3.55 mm; in assay [3], 3.74 mm; in [12] it was 55.3%; in [13], 54.07%; in assay [14], 42.99%. Also, the Activity is 35.23% in assay [15], 36.23% in assay [16], 24.17 - 33.23% in assay [17] and 47.53 - 54.53% in assay [18].
For `Cc1cccc(/C=C2\CNCC3(C2=O)[C@@H](c2cccc(C)c2)[C@@H]2CCCCN2[C@@]32C(=O)Nc3ccccc32)c1` (some centres undefined), the Activity in assay [1] is 8.16 mm; in assay [2], 3.58 mm; in assay [3], 7.82 mm.
The matching figures for `O=C1/C(=C/c2ccc(Br)cc2)CNCC12[C@@H](c1ccc(Br)cc1)[C@@H]1CCCCN1[C@@]21C(=O)Nc2ccccc21` (some centres undefined): 7.62 mm, 3.58 mm and 7.7 mm.
